This note sets out measurements from patent US20230174488A1 (priority 2020, published 2023).

In this test the target is SARS-CoV-2 M^PRO (Severe acute respiratory syndrome coronavirus 2, UniProt P0DTD1). In words: biochemical. It counts as biochemical. The following applies: In vitro potency data; 30 min pre-incubation, 25 nM M^pro, 25 µM substrate; read-out: IC50.

As to `N#CCC(=O)N(c1ccc(-c2cncs2)cc1)[C@H](C(=O)NC1CCC(F)(F)CC1)c1cncnc1` [INSCoV-612], the IC50 was found to be 23200 nM. In the case of `N#Cc1cc(OC(F)(F)F)ccc1N(C(=O)C(F)Cl)C(C(=O)NC1CCC(F)(F)CC1)c1cncnc1` (single isomer, unassigned) [INSCoV-517C(1), 2-Chloro-N-(2-cyano-4-(trifluoromethoxy)phenyl)-N-(2-((4,4-difluorocyclohexyl)amino)-2-oxo-1-(pyrimidin-5-yl)ethyl)-2-fluoroacetamide], the 50% inhibitory concentration (IC50) came to 11200 nM. The result for `O=C(NC1CCC(F)(F)CC1)[C@H](c1cncnc1)N(CCc1cccc(F)c1)C(=O)C1CO1` (stereo partly shown) [INSCoV-600Q(1)] reads 22600 nM. The result for `O=C(NC1CCCCC1)C(c1cccnc1)N(C(=O)CCl)c1ccc(Br)cc1F` (stereo not shown) [INSCoV-507] reads 2130 nM; that for `N#Cc1cc(OC(F)(F)F)ccc1N(C(=O)CCl)C(C(=O)NC1CCC(F)(F)CC1)c1cncnc1` (single isomer, unassigned) [INSCoV-517A(1A), 2-Chloro-N-(2-cyano-4-(trifluoromethoxy)phenyl)-N-(2-((4,4-difluorocyclohexyl)amino)-2-oxo-1-(pyrimidin-5-yl)ethyl)acetamide], 30 nM; that for `COC(=O)c1ccc(NC(=O)[C@H](c2cncnc2)N(C(=O)CCl)c2ccc(-c3cncs3)cc2)[nH]1` [INSCoV-601T], 170 nM. In the case of `O=C(NC1CCOC1)[C@H](c1cncnc1)N(C(=O)CCl)c1ccc(-c2cncs2)cc1` (stereo partly shown) [INSCoV-601R], the IC50 came to 120 nM.

Consider `O=C(NC1CCC(F)(F)CC1)C(c1cncnc1)N(C(=O)[C@@H]1CO1)c1ccc(-c2cnco2)cc1` (stereo partly shown) [INSCoV-600R(2)], for which the IC50 was 6450 nM.

Regarding `N#Cc1cc(OC(F)(F)F)ccc1N(C(=O)CCl)C(C(=O)NC1CCC(F)(F)CC1)c1cncnc1` (single isomer, unassigned) [INSCoV-517A(1B), 2-Chloro-N-(2-cyano-4-(trifluoromethoxy)phenyl)-N-(2-((4,4-difluorocyclohexyl)amino)-2-oxo-1-(pyrimidin-5-yl)ethyl)acetamide], the half-maximal inhibitory concentration (IC50) was found to be 3250 nM. The figure for `O=C(NC1CCC(F)(F)CC1)[C@@H](c1cncnc1)N(CCc1cccc(F)c1)C(=O)C1CO1` (stereo partly shown) [INSCoV-600Q(2)] is 2220 nM; for `CC(C)(C)c1ccc(N(C(=O)CCl)C(C(=O)NC2CCCCC2)c2cncc(O)c2)cc1` (stereo not shown) [INSCoV-535, N-(4-(Tert-Butyl)Phenyl)-2-Chloro-N-(2-(Cyclohexylamino)-1-(5-Hydroxypyridin-3-yl)-2-Oxoethyl)Acetamide] it is 1040 nM. The result for `O=C(NC1CCOCC1)C(c1cncnc1)N(C(=O)CCl)c1ccc(-c2cnco2)cc1` (stereo not shown) [INSCoV-600A(2), 2-Chloro-N-(4-(Oxazol-5-yl)Phenyl)-N-(2-Oxo-1-(Pyrimidin-5-yl)-2-((Tetrahydro-2H-Pyran-4-yl)Amino)Ethyl)Acetamide] reads 430 nM; that for `COc1ccccc1CN(C(=O)CCl)C(C(=O)NC1CCCCC1)c1cccnc1` (stereo not shown) [INSCoV-505], 8650 nM. The result for `N#Cc1cc(OC(F)(F)F)ccc1N(C(=O)CCl)[C@@H](C(=O)NC1CCCCC1)c1cccnc1` [INSCoV-517(1)] reads 80 nM. On to `O=C(NC1CCC(F)(F)CC1)C(c1cnccn1)N(C(=O)CCl)c1ccc(-c2ccns2)cc1` (single isomer, unassigned) [INSCoV-601I(2), 2-chloro-N-(2-((4,4-difluorocyclohexyl)amino)-2-oxo-1-(pyrazin-2-yl)ethyl)-N-(4-(isothiazol-5-yl)phenyl)acetamide], for which the IC50 was determined as 210 nM. The result for `O=C(NC1CCCCC1)C(c1cccnc1)N(CCc1ccccc1Cl)C(=O)CCl` (stereo not shown) [INSCoV-503D] reads 2650 nM; that for `O=C(NC1CCC(F)(F)CC1)C(c1cnccn1)N(C(=O)CCl)c1ccc(-c2cncs2)cc1` (single isomer, unassigned) [INSCoV-601G(2), 2-Chloro-N-(2-((4,4-difluorocyclohexyl)amino)-2-oxo-1-(pyrazin-2-yl)ethyl)-N-(4-(thiazol-5-yl)phenyl)acetamide], 270 nM; that for `CNC(=O)c1cc(C)c(NC(=O)C(c2cncnc2)N(C(=O)CCl)c2ccc(-c3cnco3)cc2)c(Cl)c1` (stereo not shown) [INSCoV-6000, 3-chloro-4-[[2-(N-(2-chloroacetyl)-4-oxazol-5-yl-anilino)-2-pyrimidin-5-yl-acetyl]amino]-N,5-dimethyl-benzamide], 1090 nM.

With `CCS(=O)(=O)N1CCC(NC(=O)C(c2cnccn2)N(C(=O)CCl)c2ccc(-c3cnco3)cc2)CC1` (stereo not shown) [INSCoV-501R(1), 2-Chloro-N-(2-((1-(Ethylsulfonyl)Piperidin-4-yl)Amino)-2-Oxo-1-(Pyrazin-2-yl)Ethyl)-N-(4-(Oxazol-5-yl)Phenyl)Acetamide], the IC50 is 570 nM. The result for `O=C(NC1CCCCC1)C(c1cccnc1)N(CCc1ccc(F)cc1)C(=O)CCl` (stereo not shown) [INSCoV-559, 2-Chloro-N-(2-(Cyclohexylamino)-2-Oxo-1-(Pyridin-3-yl)Ethyl)-N-(4-Fluorophenethyl)Acetamide] reads 1080 nM.

For `O=C(NC1CCOCC1)C(c1cnccn1)N(C(=O)CCl)c1ccc(-c2cnco2)cc1` (stereo not shown) [INSCoV-600A(3), 2-Chloro-N-(4-(Oxazol-5-yl)Phenyl)-N-(2-oxo-1-(Pyrazin-2-yl)-2-((Tetrahydro-2H-Pyran-4-yl)Amino)Ethyl)Acetamide], the IC50 is 410 nM.

For `O=C(NC1CCCCC1)C(c1cccnc1)N(CCc1ccccc1)C(=O)CCl` (stereo not shown) [INSCoV-503], the 50% inhibitory concentration (IC50) came to 980 nM. The result for `O=C(NC1CCOC1)C(c1cncnc1)N(C(=O)CCl)c1ccc(-c2cnco2)cc1` (stereo not shown) [INSCoV-600C] reads 220 nM.

With `O=C(NC1CCC(F)(F)CC1)C(c1cncnc1)N(C(=O)CF)c1ccc(-c2cncs2)cc1` (stereo not shown) [INSCoV-615], the IC50 is 11400 nM. As to `O=C(N[C@H]1CCC(F)(F)C1)C(c1cncnc1)N(C(=O)CCl)c1ccc(-c2cnco2)cc1` (stereo partly shown) [INSCoV-600B(2)], the half-inhibitory concentration (IC50) stood at 190 nM. The result for `Cc1cc(F)cc(F)c1NC(=O)C(c1cncnc1)N(C(=O)CCl)c1ccc(-c2cnco2)cc1` (stereo not shown) [INSCoV-600N] reads 1060 nM; that for `O=C(NC1CCC(F)(F)CC1)C(c1cncnc1)N(CCc1cccc(F)c1)C(=O)C1CO1` (stereo not shown) [INSCoV-600Q], 6980 nM.

`O=C(NC1CCC(F)(F)C1)C(c1cncnc1)N(C(=O)CCl)c1ccc(-c2cnco2)cc1` (stereo not shown) [INSCoV-600B, 2-(N-(2-chloroacetyl)-4-oxazol-5-yl-anilino)-N-(3,3-difluorocyclopentyl)-2-pyrimidin-5-yl-acetamide]: the IC50 worked out at 290 nM. `O=C(NC1CCC(F)(F)CC1)C(c1cncnc1)N(C(=O)CCl)c1ccc(-c2ccno2)cc1` (stereo not shown) [INSCoV-600J, 2-Chloro-N-(2-((4,4-difluorocyclohexyl)amino)-2-oxo-1-(pyrimidin-5-yl)ethyl)-N-(4-(isoxazol-5-yl)phenyl)acetamide]: the IC50 is 110 nM.

With `O=C(NC1CCC(F)(F)CC1)C(c1cncnc1)N(C(=O)CCl)c1ccc(-c2ccno2)cc1` (single isomer, unassigned) [INSCoV-600J(2), 2-Chloro-N-(2-((4,4-difluorocyclohexyl)amino)-2-oxo-1-(pyrimidin-5-yl)ethyl)-N-(4-(isoxazol-5-yl)phenyl)acetamide], the IC50 came to 530 nM. The result for `CC(C)(C)c1ccc(N(C(=O)CCl)[C@](C)(C(=O)NC2CCCCC2)c2cccnc2)cc1` [INSCoV-538A(2)] reads 9600 nM.

The term IC50 denotes the point on the concentration scale where inhibition reaches its midpoint.
